In patent US20230339970A1, “CASEIN KINASE 1 DELTA MODULATORS” (priority 2020, published 2023):

Tests used:
[1] = target: T1, human recombinant GST cleaved CSNK1D (Homo sapiens, UniProt P48730); assay: Purified Enzyme Assay (ADP-Glo CSNK1D Kinase Assay); format: biochemical; conditions: 2 nM CSNK1D; peptide substrate 150 μM; ATP 20 μM; 45 minutes at room temperature
T1 construct: GST (cleaved yes); purchased University of Dundee clone DU 19064
Procedure: In this assay, CSNK1D phosphorylates a substrate peptide PLSRTL-pS-VASLPGL in the presence of ATP. […] This assay monitors CSNK1D kinase activity by measuring the amount of ADP produced in the assay.
The substrate mix is added to each well of a low volume, 384-well, white opaque plate. Test compounds were diluted in HBSS and added in a dose-response to the plate.
The total volume of each reaction is 5 ul (2 μL of substrate mix, 1 μL of diluted compounds, and 2 μL of human recombinant CSNK1D). The plates are incubated for 45 minutes at room temperature.
ADP was quantified using the ADP-Glo™ Kinase Assay. ADP-Glo Reagent (5 μL) was added to each well. After a 1 hour incubation at room temperature, Kinase Detection Reagent (10 μL) was added to each well and incubated for 30 minutes. […] The raw data from the Envision is used to calculate percent activity.

human CSNK1D = target: T2, human CSNK1D (Homo sapiens, UniProt P48730); assay: Whole Cell nBRET CSNK1D Binding Assay; conditions: living CHO cells stably expressing human CSNK1D tagged with nanoluciferase; NanoBret tracer 130 nM; 2 hours at 37 C
T2 construct: expressed in transfected cells
T2 sequence (P48730 whole entry): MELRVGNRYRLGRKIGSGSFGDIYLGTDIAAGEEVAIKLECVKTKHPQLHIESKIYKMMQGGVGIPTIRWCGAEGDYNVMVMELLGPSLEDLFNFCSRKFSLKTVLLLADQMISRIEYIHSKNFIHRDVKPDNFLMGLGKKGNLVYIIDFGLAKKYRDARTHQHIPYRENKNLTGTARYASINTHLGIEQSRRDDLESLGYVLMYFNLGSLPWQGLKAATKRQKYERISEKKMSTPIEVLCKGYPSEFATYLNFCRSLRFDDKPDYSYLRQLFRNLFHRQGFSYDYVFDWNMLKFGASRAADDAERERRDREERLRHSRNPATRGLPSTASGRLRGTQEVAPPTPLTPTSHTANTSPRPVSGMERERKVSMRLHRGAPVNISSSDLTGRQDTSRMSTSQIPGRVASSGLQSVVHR

T1 sequence (P48730 whole entry): as above

| Structure (SMILES) | IC50 [1] [nM] | IC50 (human CSNK1D) [nM] |
| --- | --- | --- |
| Fc1ccc(-c2nn3c(c2-c2ccnc4[nH]ncc24)C(F)(F)CC3)nc1 [Example 14, 4-(4,4-Difluoro-2-(5-fluoropyridin-2-yl)-5,6-dihydro-4H-pyrrolo[1,2-b]pyrazol-3-yl)-1H-pyrazolo[3,4-b]pyridine] | 27 | 293 |
| CCC(=O)Nc1cc(-c2c(-c3ccc(F)cn3)nn3c2COC(C)(C)C3)c(C)cn1 [Example 379, N-(4-(2-(5-Fluoropyridin-2-yl)-6,6-dimethyl-6,7-dihydro-4H-pyrazolo[5,1-c][1,4]oxazin-3-yl)-5-methylpyridin-2-yl)propionamide] | 41 | 738 |
| [2H]C([2H])([2H])C1(C([2H])([2H])[2H])Cn2nc(-c3ccc(F)cn3)c(-c3cc(C(F)F)nc4[nH]ncc34)c2CO1 [Example 402, 3-(6-(Difluoromethyl)-1H-pyrazolo[3,4-b]pyridin-4-yl)-2-(5-fluoropyridin-2-yl)-6,6-bis(methyl-d3)-6,7-dihydro-4H-pyrazolo[5,1-c][1,4]oxazine] | 5 | 75 |
| CC1(C)Cn2nc(-c3ccc(F)cc3)c(-c3ccnc4[nH]ncc34)c2CO1 [Example 144, 2-(4-Fluorophenyl)-6,6-dimethyl-3-(1H-pyrazolo[3,4-b]pyridin-4-yl)-6,7-dihydro-4H-pyrazolo[5,1-c][1,4]oxazine] | 1 | 3 |
| Fc1ccc(-c2nn3c(c2-c2ccnc4[nH]ncc24)COCC3)nc1 [Example 78, 2-(5-Fluoro-2-pyridyl)-3-(1H-pyrazolo[3,4-b]pyridin-4-yl)-6,7-dihydro-4H-pyrazolo[5,1-c][1,4]oxazine] | 15 | 337 |
| Cc1nc2[nH]ncc2c(-c2c(-c3ccc(F)cn3)nn3c2OC[C@@H]2C[C@@H]2C3)c1F (stereo in doubt) [Example 483, (5a*S,6a*R)-3-(5-Fluoro-6-methyl-1H-pyrazolo[3,4-b]pyridin-4-yl)-2-(5-fluoropyridin-2-yl)-5a,6,6a,7-tetrahydro-5H-cyclopropa[e]pyrazolo[5,1-b][1,3]oxazepine] | 5 | 48 |
| FCC1Cn2nc(-c3ccc(F)cc3)c(-c3ccnc4[nH]ncc34)c2CO1 (single isomer, unassigned) [Example 104, (*S)-6-(Fluoromethyl)-2-(4-fluorophenyl)-3-(1H-pyrazolo[3,4-b]pyridin-4-yl)-6,7-dihydro-4H-pyrazolo[5,1-c][1,4]oxazine] | 4 | 49 |
| Fc1ccc(-c2nn3c(c2-c2c(F)cnc4[nH]ncc24)COC2(C3)CC2(F)F)nc1 (single isomer, unassigned) [Example 436, (*S)-1′1l′-Difluoro-3-(5-fluoro-1H-pyrazolo[3,4-b]pyridin-4-yl)-2-(5-fluoro-2-pyridyl)spiro[4,7-dihydropyrazolo[5,1-c][1,4]oxazine-6,2′-cyclopropane]] | 156 | 3960 |
| [2H]C([2H])([2H])[C@@]1(C#N)CCc2c(-c3ccnc4[nH]ncc34)c(-c3ccc(F)cn3)nn2C1 (single isomer, unassigned) [Example 324, (*R)-2-(S-Fluoropyridin-2-yl)-6-(methyl-d3)-3-(1H-pyrazolo[3,4-b]pyridin-4-yl)-4,5,6,7-tetrahydropyrazolo[1,5-a]pyridine-6-carbonitrile] | 37 | 112 |
| Cc1nc(-c2c(-c3ccc(F)cc3)nn3c2COC(C)(C(F)(F)F)C3)c2cn[nH]c2n1 (stereo not shown) [Example 422, 2-(4-Fluorophenyl)-6-methyl-3-(6-methyl-1H-pyrazolo[3,4-d]pyrimidin-4-yl)-6-(trifluoromethyl)-6,7-dihydro-4H-pyrazolo[5,1-c][1,4]oxazine] | 3 | 20 |
| Cc1cc(-c2c(-c3ccc(F)cn3)nn3c2CO[C@@H](C)C3)c2cn[nH]c2n1 (single isomer, unassigned) [Example 88, (*S)-2-(5-Fluoro-2-pyridyl)-6-methyl-3-(6-methyl-1H-pyrazolo[3,4-b]pyridin-4-yl)-6,7-dihydro-4H-pyrazolo[5,1-c][1,4]oxazine] | 12 | 248 |
| Cc1cc(-c2c(-c3ccc(F)cn3)nn3c2OCC(C)C3)c2cn[nH]c2n1 (stereo not shown) [Example 197, 2-(5-Fluoropyridin-2-yl)-6-methyl-3-(6-methyl-1H-pyrazolo[3,4-b]pyridin-4-yl)-6,7-dihydro-5H-pyrazolo[5,1-b][1,3]oxazine] | 3 | 38 |
| Fc1cncc(-c2nn3c(c2-c2ccnc4[nH]ncc24)COCC3)c1 [Example 76, 2-(5-Fluoro-3-pyridyl)-3-(1H-pyrazolo[3,4-b]pyridin-4-yl)-6,7-dihydro-4H-pyrazolo[5,1-c][1,4]oxazine] | 168 | 2930 |
| C[C@H]1CCc2c(-c3ccnc4[nH]ncc34)c(-c3ccc(F)cc3)nn21 [Example 15, 4-[(6S)-2-(4-Fluorophenyl)-6-methyl-5,6-dihydro-4H-pyrrolo[1,2-b]pyrazol-3-yl]-1H-pyrazolo[3,4-b]pyridine] | 1 | 12 |
| C[C@@H]1Cn2nc(-c3ccc(F)cc3)c(-c3ccnc4[nH]ncc34)c2CO1 (single isomer, unassigned) [Example 82, (*R)-2-(4-Fluorophenyl)-6-methyl-3-(1H-pyrazolo[3,4-b]pyridin-4-yl)-6,7-dihydro-4H-pyrazolo[5,1-c][1,4]oxazine] | 2 | 26 |
| Fc1ccc(-c2nn3c(c2-c2ccnc4[nH]ncc24)OCC2(C3)CC2(F)F)nc1 (single isomer, unassigned) [Example 478, (*S)-2,2-Difluoro-2′-(5-fluoropyridin-2-yl)-3′-1H-pyrazolo[3,4-b]pyridin-4-yl)-5′H,7′H-spiro[cyclopropane-1,6′-pyrazolo[5,1-b][1,3]oxazine]] | 1 | 4 |
| Fc1ccc(-c2nn3c(c2-c2ccnc4[nH]ncc24)OCC2(COC2)C3)cc1 [Example 210, 2-(4-Fluorophenyl)-3-(1H-pyrazolo[3,4-b]pyridin-4-yl)spiro[5,7-dihydropyrazolo[5,1-b][1,3]oxazine-6,3′-oxetane]] | < 0.5 | 23 |
| Fc1ccc(-c2nn3c(c2-c2ccnc4[nH]ncc24)CO[C@H](C2CCC2)C3)nc1 (single isomer, unassigned) [Example 110, (*R)-6-Cyclobutyl-2-(5-fluoropyridin-2-yl)-3-(1H-pyrazolo[3,4-b]pyridin-4-yl)-6,7-dihydro-4H-pyrazolo[5,1-c][1,4]oxazine] | 49 | 1170 |
| CC1(C)COc2c(-c3ccnc4cc[nH]c34)c(-c3ccc(F)cc3)nn2C1 [Example 448, 2-(4-Fluorophenyl)-6,6-dimethyl-3-(1H-pyrrolo[3,2-b]pyridin-7-yl)-5,7-dihydropyrazolo[5,1-b][1,3]oxazine] | 28 | 196 |
| Fc1ccc(-c2nn3c(c2-c2ccncc2)COCC3)nc1 [Example 74, 2-(5-Fluoro-2-pyridyl)-3-(4-pyridyl)-6,7-dihydro-4H-pyrazolo[5,1-c][1,4]oxazine] | 205 | 2410 |
| Fc1ccc(-c2nn3c(c2-c2ccnc4[nH]ncc24)CCCC3)nc1 [Example 35, 4-[2-(5-Fluoro-2-pyridyl)-4,5,6,7-tetrahydropyrazolo[1,5-a]pyridin-3-yl]-1H-pyrazolo[3,4-b]pyridine] | 11 | 374 |
| COCC1(F)CCc2c(-c3c(F)cnc4[nH]ncc34)c(-c3ccc(F)cn3)nn2C1 (single isomer, unassigned) [Example 303, (*R)-5-Fluoro-4-[6-fluoro-2-(5-fluoro-2-pyridyl)-6-(methoxymethyl)-5,7-dihydro-4H-pyrazolo[1,5-a]pyridin-3-yl]-1H-pyrazolo[3,4-b]pyridine] | 9 | 180 |
| Cc1nc2[nH]ncc2c(-c2c(-c3ccc(F)cn3)nn3c2CC[C@H]2[C@@H]3C2(F)F)c1F (single isomer, unassigned) [Example 357, (5a*S,6a*R)-6,6-Difluoro-3-(5-fluoro-6-methyl-1H-pyrazolo[3,4-b]pyridin-4-yl)-2-(5-fluoropyridin-2-yl)-5,5a,6,6a-tetrahydro-4H-cyclopropa[e]pyrazolo[1,5-a]pyridine] | 8 | 40 |
| Fc1ccc(-c2nn3c(c2-c2c(F)cnc4[nH]ccc24)CCCC3)nc1 [Example 34, 5-Fluoro-4-[2-(5-fluoro-2-pyridyl)-4,5,6,7-tetrahydropyrazolo[1,5-a]pyridin-3-yl]-1H-pyrrolo[2,3-b]pyridine] | 8 | 77 |
| Cc1cc(-c2c(-c3ccc(F)cc3)nn3c2CO[C@@H](C)C3)c2cn[nH]c2n1 (single isomer, unassigned) [Example 83, (*S)-2-(4-Fluorophenyl)-6-methyl-3-(6-methyl-1H-pyrazolo[3,4-b]pyridin-4-yl)-6,7-dihydro-4H-pyrazolo[5,1-c][1,4]oxazine] | 3 | 34 |
| Fc1ccc(-c2nn3c(c2-c2ccnc4[nH]ncc24)CO[C@@H](C2CCC2)C3)nc1 (single isomer, unassigned) [Example 111, (*S)-6-Cyclobutyl-2-(5-fluoropyridin-2-yl)-3-(1H-pyrazolo[3,4-b]pyridin-4-yl)-6,7-dihydro-4H-pyrazolo[5,1-c][1,4]oxazine] | 36 | 1070 |
